Tested on: LS513 KRAS G12V (colon)
Experiment: MTT assay
Assay type: cell-based
Details: Homo sapiens, LS-513, 72 h, Table 4; 3 days incubation; read-out: MTT assay IC50 KRAS mutant (Colon) LS513 KRAS G12V
Protocol: MTT assay is frequently used for the purpose of primary screening for the sensitivity of anticancer agents and to examine cytotoxicity. When cancer cells are treated with varying concentrations of any anticancer agent for a predetermined time to induce death of the cells and are then treated with MTT, and when the formation of formazan is measured, the concentration of the anticancer agent, at which about 50% of the cells survive, can be determined. This concentration value is called IC50. IC50 values differ between drugs, and thus can be characteristic of the drugs. Using this method, the effects of anticancer agents against cell proliferation can be quantitatively compared. Thus, in order to measure the cytotoxicity of samples, MTT assay was performed using CellTiter 96 Non-radioactive Cell Proliferation Assay Kit (Promega).
Cells in a cell suspension were counted with a hematocytometer, and then 200 μL of the cell suspension was added to each well of a 96 well plate at a desired concentration (cell amount determined depending on a cell line). After cell seeding, the cells were incubated in a CO2 incubator at 37° C. overnight. After one day of cell stabilization, the cells were treated with desired concentrations of the compounds. The cells were incubated in a CO2 incubator at 37° C. for 3 days, and then the sample was removed, and 200 μL of MTT solution was added to each well. After 2 hours of incubation, the MTT dilution was carefully shaken, and 200 μL of DMSO was added to each well, followed by shaking with a plate shaker for 60 minutes.

**Q.** For `CC(C)(C#N)c1cccc(C(=O)Nc2ccc(Nc3ncccc3-c3ncnc4[nH]cnc34)c(F)c2)c1` [Example 39, N-(4-(3-(9H-Purin-6-Yl)Pyridin-2-Ylamino)-3-Fluorophenyl)-3-(2-Cyanopropan-2-Yl)Benzamide], which IC50 is on record?
**A.** > 10 µM

**Q.** `O=C(Nc1ccc(F)c(Nc2ncccc2-c2ncnc3[nH]cnc23)c1F)c1cc([N+](=O)[O-])cc(C(F)(F)F)c1` [Example 40, N-(3-(3-(9H-Purin-6-Yl)Pyridin-2-Ylamino)-2,4-Difluorophenyl)-3-Nitro-5-(Trifluoromethyl)Benzamide] was tested. Which IC50 did it give?
**A.** 0.163 µM

**Q.** Which IC50 does the source give for `CC(C)(C#N)c1cc(C(=O)Nc2ccc(F)c(Nc3ncccc3-c3ncnc4[nH]cnc34)c2F)ccc1Cl` [Example 41, N-(3-(3-(9H-Purin-6-Yl)Pyridin-2-Ylamino)-2,4-Difluorophenyl)-4-Chloro-3-(2-Cyanopropan-2-Yl)Benzamide] here?
**A.** 0.475 µM

**Q.** How did the IC50 turn out when `CC(C)(C#N)c1cccc(C(=O)Nc2ccc(F)c(Nc3ncccc3-c3ncnc4[nH]cnc34)c2F)c1Cl` [Example 42, N-(3-(3-(9H-Purin-6-Yl)Pyridin-2-Ylamino)-2,4-Difluorophenyl)-2-Chloro-3-(2-Cyanopropan-2-Yl)Benzamide] was run?
**A.** 1.33 µM

**Q.** For `CC(C)(C#N)c1cc(F)cc(C(=O)Nc2ccc(F)c(Nc3ncccc3-c3ncnc4[nH]cnc34)c2F)c1` [Example 43, N-(3-(3-(9H-Purin-6-Yl)Pyridin-2-Ylamino)-2,4-Difluorophenyl)-3-(2-Cyanopropan-2-Yl)-5-Fluorobenzamide], which IC50 is on record?
**A.** 0.402 µM

**Q.** `CC(C)(C#N)c1cc(C(=O)Nc2ccc(F)c(Nc3ncccc3-c3ncnc4[nH]cnc34)c2F)cc(F)c1F` [Example 44, N-(3-(3-(9H-Purin-6-Yl)Pyridin-2-Ylamino)-2,4-Difluorophenyl)-3-(2-Cyanopropan-2-Yl)-4,5-Difluorobenzamide] was tested. Which IC50 did it give?
**A.** 1.32 µM

**Q.** How did the IC50 turn out when `O=C(Nc1ccc(F)c(Nc2ncccc2-c2ncnc3[nH]cnc23)c1F)c1cccc(Cl)c1` [Example 45, N-(3-(3-(9H-Purin-6-Yl)Pyridin-2-Ylamino)-2,4-Difluorophenyl)-3-Chlorobenzamide] was run?
**A.** > 10 µM

**Q.** For `CN(C)c1cccc(C(=O)Nc2ccc(F)c(Nc3ncccc3-c3ncnc4[nH]cnc34)c2F)c1` [Example 46, N-(3-(3-(9H-Purin-6-Yl)Pyridin-2-Ylamino)-2,4-Difluorophenyl)-3-(Dimethylamino)Benzamide], which IC50 is on record?
**A.** 7.09 µM

**Q.** How did the IC50 turn out when `Cc1cccc(C(=O)Nc2ccc(F)c(Nc3ncccc3-c3ncnc4[nH]cnc34)c2F)c1` [Example 47, N-(3-(3-(9H-Purin-6-Yl)Pyridin-2-Ylamino)-2,4-Difluorophenyl)-3-Methylbenzamide] was run?
**A.** > 10 µM

**Q.** How did the IC50 turn out when `O=C(Nc1cccc(Nc2ncccc2-c2ncnc3[nH]cnc23)c1)c1cccc(Cl)c1` [Example 48, N-(3-(3-(9H-Purin-6-Yl)Pyridin-2-Ylamino)Phenyl)-3-Chlorobenzamide] was run?
**A.** 2.48 µM

**Q.** `CC(C)(C#N)c1cccc(C(=O)Nc2ccc(F)c(Nc3ncccc3-c3ncnc4[nH]cnc34)c2)c1` [Example 49, N-(3-(3-(9H-Purin-6-Yl)Pyridin-2-Ylamino)-4-Fluorophenyl)-3-(2-Cyanopropan-2-Yl)Benzamide] was tested. Which IC50 did it give?
**A.** 0.192 µM

**Q.** Which IC50 does the source give for `O=C(Nc1ccc(F)c(Nc2ncccc2-c2ncnc3[nH]cnc23)c1)c1cccc(C(F)(F)F)c1` [Example 50, N-(3-(3-(9H-Purin-6-Yl)Pyridin-2-Ylamino)-4-Fluorophenyl)-3-(Trifluoromethyl)Benzamide] here?
**A.** 0.221 µM

**Q.** Which IC50 does the source give for `O=C(Nc1cccc(Nc2ncccc2-c2ncnc3[nH]cnc23)c1)c1cccc(C(F)(F)F)c1` [Example 51, N-(3-(3-(9H-Purin-6-Yl)Pyridin-2-Ylamino)Phenyl)-3-(Trifluoromethyl)Benzamide] here?
**A.** 5.67 µM

**Q.** Which IC50 does the source give for `O=C(Nc1ccc(F)c(Nc2ncccc2-c2ncnc3[nH]cnc23)c1F)c1ccc([N+](=O)[O-])cc1` [Example 52, N-(3-(3-(9H-Purin-6-Yl)Pyridin-2-Ylamino)-2,4-Difluorophenyl)-4-Nitrobenzamide] here?
**A.** > 10 µM

Source: patent US10844062B2, “Pyridine derivative inhibiting RAF kinase and vascular endothelial growth factor receptor, method for preparing same, pharmaceutical composition containing same, and use thereof” (SAMJIN PHARMACEUTICAL CO., LTD., priority 2016, dated 2020)
